Test results published in patent US20190343190A1, “MATERIALS INCLUDING POLYMERIC FIBERS INCORPORATING MICROCAPSULES OR NANOCAPSULES INCLUDING AN ESSENTIAL OIL” (President and Fellows of Harvard College, priority 2016, published 2019).

Experiments:
[1] = Polystyrene-water partition of citral; assay type: physicochemical
From the text: The polymer matrix should not dissolve through bulk degradation or boundary degradation as it is very inert and unreactive, plus divinylbenzene provides additional stability. […] This is extremely high: its predicts the existence of approximately 5000 molecules of citral within the nanocapsule core or polystyrene shell for every molecule in surrounding water. This dictates a fixed equilibrium between concentration in polystyrene nanocapsule Cp and surrounding water Cw given by the equation: Cp/Cw=10^3.7=5011

[2] = molecular target: leucine dehydrogenase (Bacillus subtilis, UniProt P54531); conditions: cited from earlier work
Sequence of leucine dehydrogenase (P54531 whole entry): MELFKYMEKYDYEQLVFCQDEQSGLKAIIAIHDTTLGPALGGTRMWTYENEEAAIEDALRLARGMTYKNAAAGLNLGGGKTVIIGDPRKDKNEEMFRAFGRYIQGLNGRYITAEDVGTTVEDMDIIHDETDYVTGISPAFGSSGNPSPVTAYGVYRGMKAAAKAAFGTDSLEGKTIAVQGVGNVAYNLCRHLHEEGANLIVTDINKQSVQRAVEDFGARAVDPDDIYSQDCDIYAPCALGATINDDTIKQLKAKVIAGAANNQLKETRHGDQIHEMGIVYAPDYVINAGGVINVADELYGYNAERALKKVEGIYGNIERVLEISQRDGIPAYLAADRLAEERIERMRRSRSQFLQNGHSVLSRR

CC(C)=CCCC(C)=CC=O [citral]
Molecules within the nanocapsule core or polystyrene shell for every molecule in surrounding water [1]: approximately 5000 | Binding affinity compared with branched chain amino acids [2]: higher binding affinity
